Measured values published in the NIST ThermoML archive (doi:10.1021/acs.jced.7b00195).

Details: Gas, Burnett expansion method

CCF [fluoroethane]
Details	mass density [kg/m3]
278.38 K, 201.28 kPa	4.281
278.38 K, 432.22 kPa	9.679
278.39 K, 297.17 kPa	6.437
283.26 K, 303.56 kPa	6.463
283.26 K, 442.81 kPa	9.718
283.27 K, 205.41 kPa	4.298
288.2 K, 209.64 kPa	4.316
288.21 K, 309.96 kPa	6.489
288.21 K, 452.92 kPa	9.758
293.09 K, 213.69 kPa	4.313
293.09 K, 316.32 kPa	6.485
293.1 K, 143.41 kPa	2.868
293.1 K, 462.98 kPa	9.751
298.65 K, 323.48 kPa	6.515
298.65 K, 682.94 kPa	14.731
298.66 K, 146.61 kPa	2.881
298.66 K, 218.72 kPa	4.333
298.66 K, 474.3 kPa	9.797
303.31 K, 149.42 kPa	2.894
303.31 K, 222.77 kPa	4.351
303.31 K, 329.55 kPa	6.543
303.31 K, 697.8 kPa	14.795
303.32 K, 483.63 kPa	9.838
308.96 K, 227.65 kPa	4.351
308.96 K, 336.88 kPa	6.542
308.97 K, 494.66 kPa	9.837
308.97 K, 715.6 kPa	14.793
308.98 K, 152.32 kPa	2.893
313.8 K, 155.2 kPa	2.907
313.8 K, 343.12 kPa	6.572
313.8 K, 1036.8 kPa	22.346
313.81 K, 231.58 kPa	4.371
313.81 K, 504.31 kPa	9.882
313.81 K, 730.5 kPa	14.86
318.66 K, 513.87 kPa	9.903
318.67 K, 158.08 kPa	2.912
318.67 K, 235.35 kPa	4.379
318.67 K, 349.39 kPa	6.585
318.67 K, 745.44 kPa	14.89
318.67 K, 1060.9 kPa	22.39
323.51 K, 355.59 kPa	6.601
323.51 K, 760.32 kPa	14.926
323.51 K, 1084.6 kPa	22.444
323.52 K, 160.85 kPa	2.919
323.52 K, 239.62 kPa	4.39
323.52 K, 523.39 kPa	9.926
328.42 K, 243.93 kPa	4.403
328.42 K, 532.98 kPa	9.955
328.42 K, 775.13 kPa	14.969
328.42 K, 1108.3 kPa	22.509
328.42 K, 1539.5 kPa	33.847
328.43 K, 163.8 kPa	2.928
328.43 K, 361.91 kPa	6.62
333.29 K, 541.96 kPa	9.995
333.3 K, 248.18 kPa	4.42
333.3 K, 368.16 kPa	6.647
333.3 K, 789.86 kPa	15.029
333.3 K, 1131.5 kPa	22.599
333.31 K, 166.7 kPa	2.94
338.15 K, 252.41 kPa	4.426
338.15 K, 374.3 kPa	6.655
338.15 K, 551.38 kPa	10.008
338.15 K, 1614.5 kPa	34.027
338.16 K, 169.6 kPa	2.943
338.16 K, 804.44 kPa	15.048
338.16 K, 1154.5 kPa	22.629
343.01 K, 256.69 kPa	4.428
343.01 K, 380.56 kPa	6.659
343.01 K, 818.91 kPa	15.056
343.02 K, 560.82 kPa	10.013
343.02 K, 1177.4 kPa	22.64
343.02 K, 1651.3 kPa	34.043
343.02 K, 2227.5 kPa	51.191
343.03 K, 172.53 kPa	2.945
347.85 K, 175.51 kPa	2.953
347.85 K, 570.22 kPa	10.041
347.85 K, 833.34 kPa	15.099
347.85 K, 1687.6 kPa	34.14
347.85 K, 2287.3 kPa	51.336
347.86 K, 260.96 kPa	4.441
347.86 K, 386.83 kPa	6.677
347.86 K, 1200 kPa	22.704
352.74 K, 265.25 kPa	4.438
352.74 K, 393.24 kPa	6.674
352.74 K, 579.94 kPa	10.036
352.74 K, 1724 kPa	34.121
352.74 K, 2347.1 kPa	51.308
352.74 K, 3018.7 kPa	77.15
352.75 K, 178.77 kPa	2.951
352.75 K, 847.82 kPa	15.09
352.75 K, 1222.3 kPa	22.691
358.61 K, 248.43 kPa	4.077
358.61 K, 544.42 kPa	9.219
358.61 K, 1159 kPa	20.845
358.61 K, 1648.3 kPa	31.345
358.61 K, 2274.6 kPa	47.133
358.62 K, 368.4 kPa	6.131
358.62 K, 799.33 kPa	13.862
363.36 K, 252.39 kPa	4.076
363.36 K, 553.08 kPa	9.217
363.36 K, 2325.7 kPa	47.122
363.36 K, 3082.3 kPa	70.859
363.37 K, 374.25 kPa	6.129
363.37 K, 811.8 kPa	13.859
363.37 K, 1178.9 kPa	20.84
363.37 K, 1680 kPa	31.337
368.26 K, 256.54 kPa	4.087
368.26 K, 380.26 kPa	6.145
368.26 K, 561.93 kPa	9.24
368.26 K, 825.1 kPa	13.895
368.26 K, 1199.4 kPa	20.894
368.26 K, 1712.2 kPa	31.418
368.26 K, 2378.2 kPa	47.243
368.27 K, 3165.9 kPa	71.038
373.13 K, 838.52 kPa	13.867
373.14 K, 260.73 kPa	4.078
373.14 K, 386.27 kPa	6.133
373.14 K, 1219.8 kPa	20.851
373.14 K, 1744.1 kPa	31.354
373.14 K, 2430.1 kPa	47.146
373.14 K, 3250.9 kPa	70.894
373.14 K, 4091.8 kPa	106.604
373.15 K, 570.74 kPa	9.221
378.01 K, 264.55 kPa	4.087
378.01 K, 391.92 kPa	6.145
378.01 K, 851.98 kPa	13.896
378.01 K, 1240 kPa	20.895
378.01 K, 1776.1 kPa	31.42
378.01 K, 2481.6 kPa	47.245
378.01 K, 3335.4 kPa	71.042
378.02 K, 579.55 kPa	9.241
378.02 K, 4235.2 kPa	106.825
